In patent publication US20260226011A1, “COMPOSITIONS AND METHODS FOR TREATING OCULAR DISEASES OR DISORDERS” (Translatum Medicus Inc., priority 2023, published 2026):

Key:
[1] = system: monocyte chemoattractant protein-1 (MCP-1); assay: MCP-1 (ccl2) mRNA expression (qPCR) after LPS stimulation of PMA-differentiated THP-1 macrophages; type: cell-based, Human; conditions: 150 μM compound, LPS 100 ng/ml for 1 hour, qPCR delta delta Ct (FIG. 1)
Procedure: Human THP-1 monocytes were seeded at 5×10^5-9×10^5 in a 6-well plate. Phorbol myristate acetate (5 ng/ml, PMA) was added for 48-72 hours, to induce differentiation from monocytes to macrophages. Cells were then starved for 3 hours.
Cells were harvested in RNALater (Qiagen), and prepared for quantitative polymerase chain reaction (qPCR). Total RNA was isolated using Trizol Reagent (Life Technologies) based on the manufacturer's protocol and its quantity and quality checked with a Nanodrop 2000 spectrophotometer (Thermo Scientific, USA). QuantiTect Reverse Transcription Kit with separate genomic DNA removal step (Qiagen) was used based on the manufacturer's protocol. Briefly, 0.5 μg total RNA was used for each sample during reverse transcription and the resulting cDNA solution was further diluted to 10 ng/ul with nuclease free water and stored at-20 C.
PowerUp SYBR Green Master Mix (ThermoFisher Scientific) was used for quantitative PCR based on manufacturer's protocol. […]
Relative quantification method based on delta delta Ct was used for comparison of gene expression levels in various arms. Briefly, relative quantification and statistical analysis were performed using Relative Expression Software Tool-Multiple Condition Solver (REST-MCS, V2) based on the protocol by M. W. Pfaffl & G. W. Horgan (2006), which is incorporated by reference herein in its entirety.

[2] = Acid hydrolysis of bindarit conjugates in 12M HCl, read by NMR; type: physicochemical; conditions: for hydrolysis in 12M HCl: 12M HCl at 40° C., overnight; for conjugate hydrolized (acid hydrolysis): 12M HCl, 40° C., stirred 16 hours, NMR in D2O
Procedure: Acid hydrolysis: 4 mg bindarit-taurine conjugate was added to 4 mL 12M HCl. The reaction mixture was heated to 40° C. and stirred for 16 hours, followed by concentration of the reaction mixture. About 70% (mol %) of the bindarit-taurine conjugate was hydrolized as identified by NMR in D2O (FIG. 10).
3 mg bindarit-carnosine conjugate was added to 3 mL 12M HCl. The reaction mixture was heated to 40° C. and stirred for 16 hours, followed by concentration of the reaction mixture. About 50% (mol %) of the bindarit-carnosine conjugate was hydrolized as identified by NMR in D2O (FIG. 12).

hydrolysis in 12M HCl [2] | conjugate hydrolized (acid hydrolysis) [2] | Structure (SMILES) | ability to reduce MCP-1 mRNA [1]
 |  | CCOC(=O)C(C)(C)OCc1nn(Cc2ccccc2)c2ccccc12 [bindarit ethyl ester, ethyl 2-((1-benzl-1H-indazol-3-yl)methoxy)-2-methylpropanoate] | equally as efficacious as bindarit
50% | About 50 % (mol %) | CC(C)(OCc1nn(Cc2ccccc2)c2ccccc12)C(=O)NCCC(=O)N[C@@H](Cc1cnc[nH]1)C(=O)O [bindarit-carnosine conjugate] | 
70% | About 70 % (mol %) | CC(C)(OCc1nn(Cc2ccccc2)c2ccccc12)C(=O)NCCS(=O)(=O)O [bindarit-taurine conjugate] | 
